Data reported in PubChem BioAssay AID1053147 (Broad Institute, 2014).

System: HepG2 BODIPY-LDL uptake, imaging, fold induction
Assay: fold increase of hepatoma cell fluorescent LDL uptake – imaging, BODIPY-LDL, cherry-pick, set 2, dose response (AID 1053147)
Settings: hits give high values

| SMILES | fold induction x10 |
| --- | --- |
| CN1C(=O)c2cc(NC(=O)c3ccc(C(F)(F)F)cc3)ccc2OC[C@@H]2O[C@@H](CC(=O)NC3Cc4ccccc4C3)CC[C@@H]21 | 25 |
| CN1C(=O)c2cc(NC(=O)c3ccc(C(F)(F)F)cc3)ccc2OC[C@@H]2O[C@H](CC(=O)NC3Cc4ccccc4C3)CC[C@@H]21 | 10 |
